# Activity calls are given as the source filed them.
# Assays:
# HEK293 [1] = assay: Fluorescence-based counterscreen for potentiators or agonists of NPY-Y2: cell-based high-throughput dose response assay to identify inhibitors of cyclic nucleotide gated ion channel (CNGC) activity. In this assay, the parental HEK293 cell line transfected with a cyclic-nucleotide gated ion channel (CNGC)-based cAMP sensor is used to measure inhibition of isoproterenol-induced CNGC activity by test compound.; type: functional; details: Homo sapiens
# H4 = assay: Luminescence Cell-Based Dose Response HTS to Identify Activators of 5'UTR Stem-Loop Driven Prion Protein mRNA Translation in H4 Neuroglioblastoma Cells. [Related pubchem assays: 1829 (Project Summary), 1814 (Primary HTS)]; type: functional; details: Homo sapiens
# [2] = microbe, parasite or virus in culture; type: functional; details: Mycobacterium tuberculosis
# [3] = Luminescence Cell-Based Dose Response HTS to Identify Activators of Luciferase Translation or Activity in H4 […] Cells. [Related pubchem assays: 1829 (Project Summary), 1814 (Primary HTS)]; type: functional
# [4] = biological target: T1, Neuropeptide Y receptor type 1 (Homo sapiens, UniProt P25929); assay: Fluorescence-based counterscreen for agonists of NPY-Y2: cell-based high-throughput dose response assay for agonists of NPY-Y1.; type: functional
# T1 sequence (P25929 whole entry): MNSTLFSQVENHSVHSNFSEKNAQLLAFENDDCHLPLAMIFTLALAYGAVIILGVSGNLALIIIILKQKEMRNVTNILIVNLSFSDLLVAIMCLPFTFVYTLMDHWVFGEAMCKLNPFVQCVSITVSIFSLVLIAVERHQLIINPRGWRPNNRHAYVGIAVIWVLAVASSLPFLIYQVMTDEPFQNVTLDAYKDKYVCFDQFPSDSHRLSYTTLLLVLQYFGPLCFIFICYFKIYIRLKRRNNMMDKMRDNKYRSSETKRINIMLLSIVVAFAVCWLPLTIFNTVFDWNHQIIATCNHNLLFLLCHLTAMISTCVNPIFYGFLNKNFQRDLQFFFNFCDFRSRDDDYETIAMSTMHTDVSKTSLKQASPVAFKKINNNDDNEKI
# [5] = HEp-2 cell cytotoxicity, dose response, cytotoxicity control for RSV inhibitor project, HTS (AID 2410); type: functional; details: human respiratory syncytial virus
# [6] = biological target: T2, Neuropeptide Y receptor type 2 (Homo sapiens, UniProt P49146); assay: Fluorescence-based cell-based high-throughput dose response assay for agonists of NPY-Y2. [Related pubchem assays: 1703 (Screening assay (CNGC inhibitors).), 1359 (Screening assay (NPY-Y2 potentiators or agonists).), 1304 (Screening assay (NPY-Y1 potentiators or agonists).), 1710 (Screening assay (NPY-Y2 agonists).), 1791 (Summary AID.)]; type: functional
# T2 sequence (P49146 whole entry): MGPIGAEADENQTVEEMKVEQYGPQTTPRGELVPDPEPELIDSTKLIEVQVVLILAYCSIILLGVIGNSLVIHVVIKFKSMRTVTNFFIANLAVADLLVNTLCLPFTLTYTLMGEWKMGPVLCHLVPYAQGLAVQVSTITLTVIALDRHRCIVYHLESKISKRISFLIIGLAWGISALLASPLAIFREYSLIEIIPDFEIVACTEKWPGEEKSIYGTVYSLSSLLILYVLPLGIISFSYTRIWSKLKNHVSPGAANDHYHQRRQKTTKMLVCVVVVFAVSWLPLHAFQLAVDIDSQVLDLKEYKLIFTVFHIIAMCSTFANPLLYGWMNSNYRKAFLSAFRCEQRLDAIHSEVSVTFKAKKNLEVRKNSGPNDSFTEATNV
# [7] = Luminescence Cell-Based Dose Confirmation HTS to Identify Activators of 5'UTR Stem-Loop Driven Alpha-Synuclein mRNA Translation in H4 Neuroglioblastoma Cells. [Related pubchem assays: 1829 (Project Summary), 1814 (Primary HTS)]; type: functional
# [8] = biological target: Peroxisome proliferator-activated receptor gamma/Nuclear receptor coactivator 2 (Homo sapiens, UniProt P37231); type: functional;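 further: agonist potency for raising coactivator recruitment to the receptor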
# Chain of Peroxisome proliferator-activated receptor gamma/Nuclear receptor coactivator 2 (P37231 whole entry): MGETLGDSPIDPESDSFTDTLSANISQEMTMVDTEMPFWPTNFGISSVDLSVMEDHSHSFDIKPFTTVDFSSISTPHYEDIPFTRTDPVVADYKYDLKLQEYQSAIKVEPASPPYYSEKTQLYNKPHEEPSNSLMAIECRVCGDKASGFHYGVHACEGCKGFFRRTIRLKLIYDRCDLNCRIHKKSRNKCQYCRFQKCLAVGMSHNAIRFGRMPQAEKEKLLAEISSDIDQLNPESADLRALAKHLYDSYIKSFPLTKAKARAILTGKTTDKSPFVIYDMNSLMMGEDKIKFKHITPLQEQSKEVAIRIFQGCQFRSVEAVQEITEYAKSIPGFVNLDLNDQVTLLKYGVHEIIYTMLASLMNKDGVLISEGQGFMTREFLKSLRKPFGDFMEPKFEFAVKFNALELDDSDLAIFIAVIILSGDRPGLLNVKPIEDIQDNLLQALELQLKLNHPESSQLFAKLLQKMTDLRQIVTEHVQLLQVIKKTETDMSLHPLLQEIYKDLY
# Chain of Peroxisome proliferator-activated receptor gamma/Nuclear receptor coactivator 2 (Q15596 whole entry, further chain): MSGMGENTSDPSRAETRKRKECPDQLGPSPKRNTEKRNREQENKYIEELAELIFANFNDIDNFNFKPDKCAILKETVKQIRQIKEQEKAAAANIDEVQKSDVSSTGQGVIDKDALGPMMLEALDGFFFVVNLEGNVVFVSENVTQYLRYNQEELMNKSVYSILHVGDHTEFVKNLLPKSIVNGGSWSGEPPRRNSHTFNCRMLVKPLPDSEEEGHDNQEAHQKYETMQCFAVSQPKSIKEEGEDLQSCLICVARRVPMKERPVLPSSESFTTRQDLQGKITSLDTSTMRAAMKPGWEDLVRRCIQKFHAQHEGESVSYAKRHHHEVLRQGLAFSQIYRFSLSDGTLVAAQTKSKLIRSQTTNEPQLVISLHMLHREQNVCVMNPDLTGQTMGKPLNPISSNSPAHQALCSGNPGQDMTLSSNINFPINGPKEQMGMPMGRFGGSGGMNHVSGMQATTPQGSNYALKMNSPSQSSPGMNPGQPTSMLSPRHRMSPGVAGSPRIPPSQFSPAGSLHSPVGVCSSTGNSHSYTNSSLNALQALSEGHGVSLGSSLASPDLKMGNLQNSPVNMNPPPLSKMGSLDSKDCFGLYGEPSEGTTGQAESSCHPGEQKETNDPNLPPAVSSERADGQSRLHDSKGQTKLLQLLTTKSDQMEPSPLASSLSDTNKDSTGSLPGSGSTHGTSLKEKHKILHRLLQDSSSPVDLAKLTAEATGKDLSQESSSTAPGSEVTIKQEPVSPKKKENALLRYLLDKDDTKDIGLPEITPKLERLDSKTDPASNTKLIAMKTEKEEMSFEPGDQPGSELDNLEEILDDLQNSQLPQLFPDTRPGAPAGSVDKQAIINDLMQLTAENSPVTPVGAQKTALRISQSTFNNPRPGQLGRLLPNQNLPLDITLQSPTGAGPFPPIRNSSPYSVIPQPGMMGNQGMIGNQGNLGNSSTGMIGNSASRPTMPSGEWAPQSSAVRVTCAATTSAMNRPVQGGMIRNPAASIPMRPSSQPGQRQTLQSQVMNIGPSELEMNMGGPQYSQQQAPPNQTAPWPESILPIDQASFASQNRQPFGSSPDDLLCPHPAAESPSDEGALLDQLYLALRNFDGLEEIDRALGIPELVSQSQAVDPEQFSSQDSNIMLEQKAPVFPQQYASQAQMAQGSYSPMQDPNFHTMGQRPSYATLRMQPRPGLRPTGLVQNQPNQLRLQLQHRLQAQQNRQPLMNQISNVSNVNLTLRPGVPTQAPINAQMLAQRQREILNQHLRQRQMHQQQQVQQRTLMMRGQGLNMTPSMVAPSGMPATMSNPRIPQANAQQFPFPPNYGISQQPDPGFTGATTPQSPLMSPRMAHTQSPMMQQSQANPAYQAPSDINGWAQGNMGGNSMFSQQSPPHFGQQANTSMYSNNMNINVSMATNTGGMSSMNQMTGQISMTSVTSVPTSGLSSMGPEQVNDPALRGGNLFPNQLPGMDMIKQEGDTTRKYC
# [9] = biological target: Peroxisome proliferator-activated receptor gamma/Nuclear receptor coactivator 1 (Homo sapiens, UniProt P37231); type: functional;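 further: agonist potency as compounds enhance coactivator SRC-1 recruitment to PPARgamma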
# [10] = biological target: Peroxisome proliferator-activated receptor gamma/Nuclear receptor coactivator 3 (Homo sapiens, UniProt P37231); type: functional;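 further: agonist potency for raising coactivator recruitment to the receptor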
# Chain of Peroxisome proliferator-activated receptor gamma/Nuclear receptor coactivator 3 (P37231 whole entry): as the sequence (P37231 whole entry) above
# Chain of Peroxisome proliferator-activated receptor gamma/Nuclear receptor coactivator 3 (Q9Y6Q9 whole entry, further chain): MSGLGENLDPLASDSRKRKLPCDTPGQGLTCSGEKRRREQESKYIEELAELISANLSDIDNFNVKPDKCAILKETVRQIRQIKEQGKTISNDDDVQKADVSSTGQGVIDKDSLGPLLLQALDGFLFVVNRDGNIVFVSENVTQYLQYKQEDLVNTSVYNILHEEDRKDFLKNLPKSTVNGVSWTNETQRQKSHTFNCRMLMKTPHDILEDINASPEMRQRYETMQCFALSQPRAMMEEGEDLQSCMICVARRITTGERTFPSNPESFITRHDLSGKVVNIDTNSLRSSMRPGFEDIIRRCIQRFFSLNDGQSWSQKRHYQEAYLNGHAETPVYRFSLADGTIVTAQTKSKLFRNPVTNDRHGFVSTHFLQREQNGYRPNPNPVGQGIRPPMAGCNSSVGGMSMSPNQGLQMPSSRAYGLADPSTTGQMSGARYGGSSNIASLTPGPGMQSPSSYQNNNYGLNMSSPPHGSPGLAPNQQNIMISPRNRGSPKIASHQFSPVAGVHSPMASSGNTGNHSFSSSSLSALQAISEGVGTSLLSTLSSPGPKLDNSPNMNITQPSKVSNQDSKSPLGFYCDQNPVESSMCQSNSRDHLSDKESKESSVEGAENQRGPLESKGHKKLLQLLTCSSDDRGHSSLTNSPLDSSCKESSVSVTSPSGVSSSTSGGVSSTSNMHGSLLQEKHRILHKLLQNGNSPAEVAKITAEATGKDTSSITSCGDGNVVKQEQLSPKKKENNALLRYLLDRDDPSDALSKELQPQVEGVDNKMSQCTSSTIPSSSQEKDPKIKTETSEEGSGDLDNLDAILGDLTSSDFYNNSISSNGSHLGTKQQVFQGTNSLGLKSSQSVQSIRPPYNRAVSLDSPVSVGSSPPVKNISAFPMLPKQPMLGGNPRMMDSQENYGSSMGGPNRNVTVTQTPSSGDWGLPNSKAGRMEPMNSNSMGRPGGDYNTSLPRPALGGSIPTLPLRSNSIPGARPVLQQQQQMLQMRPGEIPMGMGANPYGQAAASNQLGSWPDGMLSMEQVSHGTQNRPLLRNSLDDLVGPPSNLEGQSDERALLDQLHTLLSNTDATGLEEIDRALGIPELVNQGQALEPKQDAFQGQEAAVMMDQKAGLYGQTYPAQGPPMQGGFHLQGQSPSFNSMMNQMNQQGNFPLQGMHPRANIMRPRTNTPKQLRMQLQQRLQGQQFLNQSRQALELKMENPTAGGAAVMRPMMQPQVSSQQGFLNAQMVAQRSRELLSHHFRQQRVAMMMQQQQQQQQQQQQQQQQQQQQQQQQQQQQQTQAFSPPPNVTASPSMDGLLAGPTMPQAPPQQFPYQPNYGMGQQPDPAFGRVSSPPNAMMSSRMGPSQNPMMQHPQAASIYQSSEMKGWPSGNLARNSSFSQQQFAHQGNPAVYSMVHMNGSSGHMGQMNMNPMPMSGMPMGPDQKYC
# [11] = MC4R antagonists, dose response, counter-screen for LGR2 antagonist project, cell-based, plate reader, cherry pick (AID 743444); type: functional;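 further: transfected HEK 293 cells stimulated with alpha-MSH peptide; potency of inhibitors of the alpha-MSH evoked signal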
# [12] = A549 cell cytotoxicity, dose response, cytotoxicity control, plate reader, cherry-pick, antagonist series (AID 743412); type: functional, cell-based
# [13] = LGR2 antagonists, dose response, cell-based, HEK293, CRE-luciferase reporter, cherry pick, set 2 (AID 743343); type: functional;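 further: transfected cells were stimulated with diluted bursicon conditioned medium after compound addition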
# [14] = biological target: T3, Heat shock factor protein 1 (Mus musculus, UniProt P38532); assay: inhibition of MG132-induced HSE-luciferase signal, confirmation, cell-based, NIH3T3, luminescence, dose retest (AID 2382); type: functional;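 further: NIH3T3 fibroblasts with HSF1-driven luciferase reporter stressed by proteasome inhibitor MG132; luminescence from HSF1-driven luciferase expression after 8 hours of MG132 stress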
# T3 sequence (P38532 whole entry): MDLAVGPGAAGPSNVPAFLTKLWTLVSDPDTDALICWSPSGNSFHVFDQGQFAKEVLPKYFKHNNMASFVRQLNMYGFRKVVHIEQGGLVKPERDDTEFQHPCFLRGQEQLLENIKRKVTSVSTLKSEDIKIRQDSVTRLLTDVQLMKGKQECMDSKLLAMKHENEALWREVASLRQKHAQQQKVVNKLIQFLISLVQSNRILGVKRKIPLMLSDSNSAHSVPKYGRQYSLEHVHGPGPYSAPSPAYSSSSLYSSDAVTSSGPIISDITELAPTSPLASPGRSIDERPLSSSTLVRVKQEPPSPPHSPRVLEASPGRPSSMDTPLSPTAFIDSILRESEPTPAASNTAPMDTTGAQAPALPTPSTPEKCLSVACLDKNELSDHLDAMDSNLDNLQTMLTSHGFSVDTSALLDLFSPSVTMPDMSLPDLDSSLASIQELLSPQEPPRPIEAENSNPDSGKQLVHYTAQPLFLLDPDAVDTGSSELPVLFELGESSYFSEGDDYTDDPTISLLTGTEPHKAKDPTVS
# [15] = Luminescence Cell-Based Dose Response HTS to Identify Inhibitors of 5'UTR Stem-Loop Driven Prion Protein mRNA Translation in H4 Neuroglioblastoma Cells. [Related pubchem assays: 1827 (Project Summary), 1813 (Primary HTS)]; type: functional
# [16] = HEK293 cell cytotoxicity, dose response, cytotoxicity control, plate reader, cherry-picked samples (AID 743446); type: functional, cell-based
# [17] = inhibitors of firefly luciferase expression or activity, dose response, H4 neuroglioma cells, luminescence (AID 1990); type: functional, cell-based
# [18] = Luminescence-based counterscreen assay for KLF5 inhibitors: dose response cell-based high throughput screening assay to identify cytotoxic compounds using the IEC-6 intestinal epithelial cell line. [Related pubchem assays: 1700 (Primary screen.), 1834 (Confirmation screen.), 1858 (Summary AID.), 1905 (Counterscreen.)]; type: functional
# INS1 = assay: beta cell apoptosis inhibitors, cytokine rescue, dose response, luminescence, retest (AID 449756); type: functional, cell-based; details: Rattus norvegicus;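 further: cell death triggered by IL-1 beta plus TNF-alpha plus IFN-gamma mixture; protective hits raise ATP signal compared with cytokine alone wells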
# [19] = inhibitors of Bluetongue virus cytopathic effect, confirmation, arbovirus, BSR cells (AID 1250); type: functional;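 further: protection from viral cytopathic effect measured as cell viability by ATP luminescence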
# [20] = biological target: T4, Alkaline phosphatase, tissue-nonspecific isozyme (Homo sapiens, UniProt P05186)
# T4 sequence (P05186 whole entry): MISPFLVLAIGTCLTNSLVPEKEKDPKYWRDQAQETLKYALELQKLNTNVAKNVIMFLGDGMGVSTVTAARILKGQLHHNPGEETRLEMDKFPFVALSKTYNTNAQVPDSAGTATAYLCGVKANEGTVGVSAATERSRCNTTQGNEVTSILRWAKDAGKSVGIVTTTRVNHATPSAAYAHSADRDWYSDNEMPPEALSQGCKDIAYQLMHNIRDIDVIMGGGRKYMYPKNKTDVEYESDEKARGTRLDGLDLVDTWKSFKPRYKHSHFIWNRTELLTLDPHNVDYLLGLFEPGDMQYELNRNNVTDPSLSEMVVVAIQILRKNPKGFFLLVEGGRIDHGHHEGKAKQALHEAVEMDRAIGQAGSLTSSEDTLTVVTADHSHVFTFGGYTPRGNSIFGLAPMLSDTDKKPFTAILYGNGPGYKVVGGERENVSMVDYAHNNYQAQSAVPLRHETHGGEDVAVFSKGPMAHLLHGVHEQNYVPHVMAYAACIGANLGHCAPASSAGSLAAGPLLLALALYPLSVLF
# [21] = THP-1 cell cytotoxicity, dose response, cytotoxicity control for Vif-APOBEC3G degradation inhibitor project, THP-1 cells (AID 1117359); type: functional; details: Human immunodeficiency virus 1, THP-1
# [22] = biological target: Lysosomal acid glucosylceramidase (Homo sapiens, UniProt P04062); assay: Dose response cell-based high throughput screening assay to identify enhancers of beta-glucosidase activity. [Related pubchem assays: 784 ]; type: functional
# Chain of Lysosomal acid glucosylceramidase (P04062 whole entry): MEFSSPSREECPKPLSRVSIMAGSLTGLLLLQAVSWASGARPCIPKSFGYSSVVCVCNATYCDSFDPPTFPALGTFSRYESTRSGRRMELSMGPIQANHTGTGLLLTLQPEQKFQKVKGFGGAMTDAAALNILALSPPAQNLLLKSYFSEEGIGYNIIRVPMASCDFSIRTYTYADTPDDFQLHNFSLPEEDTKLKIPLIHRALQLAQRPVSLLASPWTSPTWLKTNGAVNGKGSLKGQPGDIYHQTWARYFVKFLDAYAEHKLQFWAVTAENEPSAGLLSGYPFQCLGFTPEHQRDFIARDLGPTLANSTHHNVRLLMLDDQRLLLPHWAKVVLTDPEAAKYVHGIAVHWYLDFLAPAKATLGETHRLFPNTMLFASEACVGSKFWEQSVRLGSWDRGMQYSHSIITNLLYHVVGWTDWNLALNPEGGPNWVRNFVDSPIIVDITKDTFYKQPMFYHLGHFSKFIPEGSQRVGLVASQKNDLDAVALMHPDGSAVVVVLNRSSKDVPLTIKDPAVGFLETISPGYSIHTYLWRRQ
# [23] = C. albicans growth with fluconazole, confirmation, fluorescence, retest (AID 2467); type: functional, cell-based
# [24] = NIH-3T3 fibroblast cytotoxicity, dose response, cytotoxicity control, cell-based, fluorescence, Alamar Blue, secondary assay (AID 2327); type: functional;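 further: NIH-3T3 mouse fibroblasts cultured with fluconazole at 8 µg/mL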
# [25] = cytotoxicity in MIN6 insulinoma cells, dose response, cytotoxicity control, cell-based, mouse insulinoma (AID 2122); type: functional;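 further: confirmatory high-throughput counterscreen run to flag cytotoxic compounds; mouse MIN-6 beta cells carrying an insulin promoter eGFP reporter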
# HEK293 [26] = assay: inhibitors of LMP1-driven NF-kB reporter, dose response, cell-based, HEK293, luciferase, cherry-pick (AID 588343); type: functional; details: Homo sapiens
# Nonstructural protein 1 = Nonstructural protein 1 (Influenza A virus, UniProt Q194T2); type: functional, Influenza A virus (A/California/07/2009(H1N1))
# [27] = HepG2 cell cytotoxicity, dose response, cytotoxicity control, plate reader, cherry-pick, antagonist series (AID 743416); type: functional, cell-based
# cells [28] = type: functional, cell-based
# [29] = insulin promoter down-regulators in MIN6 cells, imaging, high-content screening, mouse beta cells (AID 1628); type: functional
# cells [30] = type: functional, cell-based; remark: listed apart in the source
# [31] = Luminescence Cell-Based Dose Confirmation HTS to Identify Inhibitors of Platelet Dense Granule Release. [Related pubchem assays: 1663 (Primary HTS), 1678 (Summary of Project)]; type: functional
# [32] = biological target: Luciferin 4-monooxygenase (Photinus pyralis, UniProt P08659); assay: firefly luciferase enzyme inhibitors, dose response, biochemical, luminescence (AID 1891)
# Paired box protein Pax-8 = Paired box protein Pax-8 (Homo sapiens, UniProt Q06710); assay: inhibitors of PAX8-driven TPO luciferase reporter, dose response, RMG-I cells, cherry-pick (AID 687027); type: functional, cell-based;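 further: luciferase reporter driven by Pax8 target thyroperoxidase promoter measured by SteadyGlo luminescence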
# Chain of Paired box protein Pax-8 (Q06710 whole entry): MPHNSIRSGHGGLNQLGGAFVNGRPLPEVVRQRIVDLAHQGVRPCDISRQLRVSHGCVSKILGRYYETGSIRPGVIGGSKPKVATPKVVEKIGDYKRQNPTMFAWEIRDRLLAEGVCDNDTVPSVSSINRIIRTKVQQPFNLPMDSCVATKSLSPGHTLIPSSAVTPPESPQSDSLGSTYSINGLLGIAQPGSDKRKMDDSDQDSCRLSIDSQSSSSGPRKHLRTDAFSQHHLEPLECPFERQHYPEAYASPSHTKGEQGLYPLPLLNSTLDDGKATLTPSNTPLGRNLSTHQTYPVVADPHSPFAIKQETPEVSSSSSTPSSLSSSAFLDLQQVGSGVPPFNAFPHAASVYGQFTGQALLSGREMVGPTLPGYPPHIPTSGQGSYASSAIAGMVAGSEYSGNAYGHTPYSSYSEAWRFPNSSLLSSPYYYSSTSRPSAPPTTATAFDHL
smiles,measurement,setting,value
CCn1c2ccccc2c2cc(NC(=O)CN(C)CC(=O)Nc3ccc(N4CCOCC4)cc3)ccc21,EC50,HEK293 [1],> 35.4 µM (not active)
same,EC50,H4,> 120 µM (not active)
same,CC50,[2],37.5 µM (active)
same,EC50,[3],> 120 µM (not active)
same,EC50,[4],> 35.4 µM (not active)
same,CC50,[5],32.7 µM (active)
same,EC50,[6],> 35.4 µM (not active)
same,EC50,[7],> 120 µM (not active)
N#Cc1cc(O)c(-n2nnc3ccccc32)cc1C#N,EC50,[8],> 79.4 µM (not active)
same,EC50,[9],> 79.4 µM (not active)
same,EC50,[10],> 79.4 µM (not active)
CC1CCN(c2ccc(-c3cccs3)nn2)CC1,AC50,[11],1.43 µM (active)
same,AC50,[12],29.4 µM (active)
same,AC50,[13],0.851 µM (active)
same,EC50,[14],2.78 µM (active)
same,EC50,[15],10.4 µM (active)
same,AC50,[16],30.9 µM (active)
same,EC50,[17],8.6 µM (active)
same,IC50,[18],37.5 µM (not active)
O=C(Nc1nc2ccccc2s1)c1cc(-c2ccccc2)nn1-c1ccccc1,AC50,INS1,3.62 µM (active)
same,IC50,[19],47.4 µM (active)
Cc1nn(Cc2c(F)cccc2Cl)c(C)c1[N+](=O)[O-],EC50,[8],> 79.4 µM (not active)
same,EC50,[9],> 79.4 µM (not active)
same,EC50,[10],> 79.4 µM (not active)
O=C(CCC(=O)NNc1nc2ccccc2c2nc(-c3ccccc3)nn12)NCCCN1CCOCC1,EC50,[20],70.8 µM (not active)
same,CC50,[21],> 40 µM (active)
CCOC(=O)CN1C(=O)CSc2ccccc21,EC50,[22],> 10 µM (not active)
COc1ccc(-c2nc3ccccn3c2CN2CCN(c3ccccc3F)CC2)cc1,CC50,[2],> 40 µM (active)
same,EC50,[20],69.1 µM (not active)
Cn1c(Cc2ccccc2)nnc1SCC(=O)Nc1ccccc1N1CCOCC1,EC50,[22],> 50 µM (not active)
COc1cccc(/C=N/Nc2nccnc2Cl)c1O,AC50,[11],3.39 µM (active)
same,AC50,[12],4.2 µM (active)
same,AC50,[13],3.7 µM (active)
same,EC50,[23],1.52 µM (active)
same,EC50,[24],> 150 µM (inactive)
same,AC50,[16],6.83 µM (active)
same,IC50,[25],3.97 µM (active)
same,AC50,HEK293 [26],2.73 µM (active)
same,IC50,Nonstructural protein 1,7.59 µM (active)
same,AC50,[27],2.48 µM (active)
same,IC50,[18],9.16 µM (active)
same,EC50,cells [28],> 350 µM (not active)
same,IC50,[29],3.57 µM (active)
same,EC50,cells [30],6.97 µM (active)
O=C(N/N=C/c1ccc(Cl)c([N+](=O)[O-])c1)c1cc(-c2ccc3c4c(cccc24)CC3)[nH]n1,EC50,HEK293 [1],> 35.4 µM (not active)
same,EC50,[31],> 112 µM (not active)
same,EC50,[32],> 112 µM (not active)
same,EC50,[4],> 35.4 µM (not active)
same,EC50,[6],> 35.4 µM (not active)
same,AC50,Paired box protein Pax-8,3.25 µM (active)
